Source: US11519859B2, “Rhodol-based thallium sensors for high-throughput screening of potassium channels” (priority 2018, dated 2022)
Values joined by “and” are separate entries in the source; they are usually repeats but may differ in a detail not shown here. Equal entries are not always repeated.

What was measured:
[1] = test system: HEK-293 cells co-expressing GIRK1 and GIRK2; conditions: dye loading 1 h, 1 mM Tl^+ stimulus; for on/off (Tl^+ flux assay), maximum fold increase in fluorescence after Tl^+ addition: 10 μM ML297, 2 mM Allura Red AC, n = 6
Protocol: HEK-293 cells co-expressing GIRK1 and GIRK2 were cultured to 80% confluence in a T75 flask (Techno Plastic Products, Trasadingen, CH) at 37° C. and 5% CO2 in medium consisting of Minimal Essential Medium (Cellgro, Manassas, Va.) containing 1× Glutagro (Cellgro, Manassas, Va.) and 10% (v/v) heat-inactivated fetal bovine serum (Life Technologies, Carlsbad, Calif.). The cells were dislodged by treatment with TrypLE (Gibco/Life Technologies, Carlsbad, Calif.), diluted in medium, and plated on clear bottomed, black-walled, amine coated 384 well plates (BD Biosciences, Billerica, Mass.) at a density ˜20,000 cells per well. The plated cells were incubated overnight at 37° C. and 5% CO2 and used for the assay the next day.
Dye loading solutions of Thallos were prepared by dissolving a 25 μg aliquot in 30 μL of 6.7% Pluoronic F-127 (w/v) in DMSO and diluting the resulting solution 1:1000 into assay buffer. Culture medium was removed and replaced with 20 μL of dye loading buffer and incubated in the dark at room temperature for 1 h.
Assay—Assays were conducted on a WaveFront Biosciences Panoptic 1 or 2 (WaveFront Biosciences, Franklin, Tenn.) as indicated. Dye loading solutions were removed and replaced with assay buffer immediately before imaging unless otherwise noted. 10 s following commencement of plate imaging, 20 μL of compound at 2.5× concentration in assay buffer was added and incubated for 120 s at which point 10 μL of Tl^+ at 5× concentration in stimulus buffer (125 mM NaHCO3, 1.8 mM CaSO4, 1 mM MgSO4, 5 mM glucose, 10 mM HEPES, pH 7.4, and T12SO4), and images taken for the following 120 s.
1 mM of T12SO4 (final concentration) was used for stimulus. Assay and stimulus buffers were supplemented with 2 mM of Allura Red AC. […] On/off ratios were calculated by dividing the fluorescence intensity after saturation following Tl^+ addition by the fluorescence intensity immediately after compound addition (n=6).

[2] = Determination of photochemical properties of saponified dyes; assay type: physicochemical; conditions: for λem (fluorescence emission maximum) / λmax (absorption maximum) / ε (molar absorptivity): after saponification, 150 mM KCl, 10 mM HEPES, 50 μM EDTA, pH = 7.22; for ε (molar absorptivity): at λmax
Protocol: Evaluation of the photochemical properties of the active Thallium sensing species was accomplished by saponifying 10 μL of each pro-dye stock solution by incubating with 90 μL of 0.1 M KOH for 20 min at 37° C. with the exception of 8b which was treated with 1% NH4OH for 1 h at 37° C. The saponified compounds were diluted into 150 mM KCl buffered with 10 mM HEPES, pH=7.22 with 50 μM of EDTA. All photochemical measurements were taken in this buffer. Absorbance and fluorescence emission spectra were recorded on a Molecular Devices Spectromax M5 using polystyrene cuvettes with path length=1 cm at 23° C. Molar absorptivities are reported for λmax. The emission wavelengths monitored for recording excitation spectra, the excitation wavelengths used for recording emission spectra, and the corresponding emission cutoff filters used are listed in Table 2 below, and representative excitation and emission spectra are shown in FIG. 7.
To determine the in vitro photochemical properties of the active Tl^+ sensing species, 8a-m were treated with base to remove the acetoxymethyl esters and aryl acetate and then diluted into 10 mM HEPES buffered 150 mM KCl with 50 μM EDTA at pH=7.22.

[3] = Compound storage as DMSO stock solutions; assay type: physicochemical; conditions: 10 mM stock solutions in DMSO at −20° C.
Protocol: Compounds 8a-m were dissolved in DMSO and stored as 10 mM stock solutions at −20° C. […] To prevent this, dry aliquots of 8a were prepared and dissolved in DMSO immediately before use.

[4] = test system: HEK-293 cells co-expressing GIRK1 and GIRK2; experiment: Fold increase in dye fluorescence in Tl+ flux assay with ML297 concentration series; assay type: cell-based
Excerpt: ML297 concentration response curves—In general, all concentration-response data were collected on a WaveFront Biosciences Panoptic 2. Thallos treated cells were imaged using 482/35 nm excitation and 536/40 nm emission filters. 8c treated cells were imaged using 529/24 nm excitation and 565/24 nm emission filters (unless otherwise noted). FluxOR Red treated cells were imaged using 544/24 nm excitation and 593/40 nm emission filters (all filters purchased from Semrock, Rochester, N.Y.). FluxOR Red reagent was prepared according to the manufacturer's procedure. 5 μM of 8c was used for dye loading for all conditions.
FluxOR Red procedure with background suppressor. The manufacturer's procedure was followed with the exceptions that the dye loading solution was replaced with 20 μL of assay buffer, solutions of ML297 were prepared in assay buffer plus background suppressor, 20 μL of compound solution was added and 10 μL stimulus buffer (basal) was added according to the general assay protocol described above.
FluxOR Red procedure without background suppressor. The FluxOR Red manufacturer's procedure was followed except the background suppressor was replaced by H2O in all buffers.
Bicarbonate buffer with Allura Red AC. […]
The fluorescence intensity values of the first 6 time points for each well were averaged and the fluorescence intensity for all time points in the well was divided by this value to provide F/Fo for each time point. The average F/Fo of the vehicle control was then subtracted from each curve and the normalized, control subtracted fluorescence intensity value was sampled at a time point several seconds after Tl^+ addition. […] Fold increases in fluorescence reported in the main paper were calculated by averaging F/Fo between 100 and 110 s after Tl^+ addition. […]
The performance of 8c was evaluated in a Tl^+ flux assay to generate a concentration response curve (CRC) of the GIRK activator ML297. […] Normalized, control subtracted fluorescence intensity values were sampled along the curves following Tl^+ addition at each concentration and a CRC was fit using GraphPad Prism (FIG. 3B).

COc1cc(NC(=O)c2ccc3c(c2)C(=O)OC32c3ccc(N)cc3Oc3cc(OC(C)=O)ccc32)ccc1N(CC(=O)OCOC(C)=O)CC(=O)OCOC(C)=O (stereo not shown) [Compound 8a, bis(acetoxymethyl) 2,2′-((4-(3′-acetoxy-6′-amino-3-oxo-3H-spiro[isobenzofuran-1,9′-xanthen]-5-ylcarboxamido)-2-methoxyphenyl)azanediyl)diacetate]
on/off (Tl^+ flux assay), maximum fold increase in fluorescence after Tl^+ addition [1]: 3.02 ± 0.08 fold
λem (fluorescence emission maximum) [2]: 520 nm
λmax (absorption maximum) [2]: 496 nm
ε (molar absorptivity) [2]: 57000 M⁻¹ cm⁻¹
stability on storage [3]: appeared to undergo transacetylation

COc1cc(NC(=O)c2ccc3c(c2)C(=O)OC32c3ccc(OC(C)=O)cc3Oc3cc(N(C)C)ccc32)ccc1N(CC(=O)OCOC(C)=O)CC(=O)OCOC(C)=O (stereo not shown) [Compound 8c, bis(acetoxymethyl) 2,2′-((4-(3′-acetoxy-6′-(dimethylamino)-3-oxo-3H-spiro[isobenzofuran-1,9′-xanthene]-5-carboxamido)-2-methoxyphenyl)azanediyl)diacetate]
on/off (Tl^+ flux assay), maximum fold increase in fluorescence after Tl^+ addition [1]: 4.21 fold and 4.21 ± 0.04 fold
fold increase in fluorescence at the highest ML297 concentration ([4]; FluxOR Red kit procedure with background suppressor, 10 μM ML297, F/Fo 100-110 s after Tl^+): 3.09±0.004 fold
fold increase in fluorescence at the highest ML297 concentration ([4]; FluxOR Red kit procedure without background suppressor): 2.87±0.004 fold
fold increase in fluorescence ([4]; bicarbonate stimulus buffer, 500 μM Tl^+, no-wash, 1 mM Allura Red AC): 3.40±0.009 fold
λem (fluorescence emission maximum) [2]: 551 nm
λmax (absorption maximum) [2]: 521 nm
ε (molar absorptivity) [2]: 56000 M⁻¹ cm⁻¹

COc1cc(NC(=O)c2ccc3c(c2)C(=O)OC32c3ccc(Nc4ccccc4)cc3Oc3cc(OC(C)=O)ccc32)ccc1N(CC(=O)OCOC(C)=O)CC(=O)OCOC(C)=O (stereo not shown) [Compound 8i, bis(acetoxymethyl) 2,2′-((4-(3′-acetoxy-3-oxo-6′-(phenylamino)-3H-spiro[isobenzofuran-1,9′-xanthen]-5-ylcarboxamido)-2-methoxyphenyl)azanediyl)diacetate]
on/off (Tl^+ flux assay), maximum fold increase in fluorescence after Tl^+ addition [1]: 1.07 ± 0.01 fold
fluorescence and response to Tl^+ in cells (in words) [1]: minor increase in fluorescence
λmax (absorption maximum) [2]: 517 nm
ε (molar absorptivity) [2]: 52000 M⁻¹ cm⁻¹
fluorescence of saponified dye (in words) ([2]; reason why spectra were not recorded): very weak fluorescence

COc1cc(NC(=O)c2ccc3c(c2)C(=O)OC32c3ccc(OC(C)=O)cc3Oc3cc(N4CCC4)ccc32)ccc1N(CC(=O)OCOC(C)=O)CC(=O)OCOC(C)=O (stereo not shown) [Compound 8j, bis(acetoxymethyl) 2,2′-((4-(3′-acetoxy-6′-(azetidin-1-yl)-3-oxo-3H-spiro[isobenzofuran-1,9′-xanthen]-5-ylcarboxamido)-2-methoxyphenyl)azanediyl)diacetate]
on/off (Tl^+ flux assay), maximum fold increase in fluorescence after Tl^+ addition [1]: 3.92 ± 0.13 fold
λem (fluorescence emission maximum) [2]: 550 nm
λmax (absorption maximum) [2]: 522 nm
ε (molar absorptivity) [2]: 56000 M⁻¹ cm⁻¹

COc1cc(NC(=O)c2ccc3c(c2)C(=O)OC32c3ccc(OC(C)=O)cc3Oc3cc(N4CC(F)(F)C4)ccc32)ccc1N(CC(=O)OCOC(C)=O)CC(=O)OCOC(C)=O (stereo not shown) [Compound 8k, bis(acetoxymethyl) 2,2′-((4-(3′-acetoxy-6′-(3,3-difluoroazetidin-1-yl)-3-oxo-3H-spiro[isobenzofuran-1,9′-xanthen]-5-ylcarboxamido)-2-methoxyphenyl)azanediyl)diacetate]
on/off (Tl^+ flux assay), maximum fold increase in fluorescence after Tl^+ addition [1]: 2.02 ± 0.04 fold
fluorescence and response to Tl^+ in cells (in words) [1]: almost half the response to Tl^+
λem (fluorescence emission maximum) [2]: 530 nm
λmax (absorption maximum) [2]: 506 nm
ε (molar absorptivity) [2]: 66000 M⁻¹ cm⁻¹

COc1cc(NC(=O)c2ccc3c(c2)C(=O)OC32c3ccc(OC(C)=O)cc3Oc3cc(N4CCCC4)ccc32)ccc1N(CC(=O)OCOC(C)=O)CC(=O)OCOC(C)=O (stereo not shown) [Compound 8l, bis(acetoxymethyl) 2,2′-((4-(3′-acetoxy-3-oxo-6′-(pyrrolidin-1-yl)-3H-spiro[isobenzofuran-1,9′-xanthen]-5-ylcarboxamido)-2-methoxyphenyl)azanediyl)diacetate]
on/off (Tl^+ flux assay), maximum fold increase in fluorescence after Tl^+ addition [1]: 3.54 ± 0.07 fold
λem (fluorescence emission maximum) [2]: 553 nm
λmax (absorption maximum) [2]: 525 nm
ε (molar absorptivity) [2]: 39000 M⁻¹ cm⁻¹

COc1cc(NC(=O)c2ccc3c(c2)C(=O)OC32c3ccc(OC(C)=O)cc3Oc3cc(N4CCCCC4)ccc32)ccc1N(CC(=O)OCOC(C)=O)CC(=O)OCOC(C)=O (stereo not shown) [Compound 8m, bis(acetoxymethyl) 2,2′-((4-(3′-acetoxy-3-oxo-6′-(piperidin-1-yl)-3H-spiro[isobenzofuran-1,9′-xanthen]-5-ylcarboxamido)-2-methoxyphenyl)azanediyl)diacetate]
on/off (Tl^+ flux assay), maximum fold increase in fluorescence after Tl^+ addition [1]: 3.09 ± 0.04 fold
λem (fluorescence emission maximum) [2]: 557 nm
λmax (absorption maximum) [2]: 526 nm
ε (molar absorptivity) [2]: 48000 M⁻¹ cm⁻¹
